# Reference: patent US20050245563A1 (Millennium Pharmaceuticals, Inc., priority 2003, published 2005)
# Biological target: T1, human Chk1 (GST-Chk1) (Homo sapiens, UniProt O14757)
# T1 construct: made in house; host or cells: insect cells (baculovirus, Bac-to-Bac)
# T1 sequence (O14757 1-476): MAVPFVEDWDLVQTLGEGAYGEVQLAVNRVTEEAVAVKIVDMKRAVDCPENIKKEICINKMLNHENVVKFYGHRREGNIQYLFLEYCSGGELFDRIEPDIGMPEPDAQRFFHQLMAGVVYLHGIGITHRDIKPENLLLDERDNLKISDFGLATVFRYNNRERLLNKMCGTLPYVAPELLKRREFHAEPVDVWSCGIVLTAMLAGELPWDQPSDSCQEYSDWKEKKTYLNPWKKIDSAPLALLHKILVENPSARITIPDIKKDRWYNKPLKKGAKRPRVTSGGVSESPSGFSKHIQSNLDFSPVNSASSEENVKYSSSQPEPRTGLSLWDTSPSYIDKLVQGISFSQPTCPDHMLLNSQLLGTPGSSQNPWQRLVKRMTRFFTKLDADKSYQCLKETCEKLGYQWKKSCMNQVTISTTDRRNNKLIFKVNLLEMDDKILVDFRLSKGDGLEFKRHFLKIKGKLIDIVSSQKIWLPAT
# Assay: Chk1 DELFIA kinase assay (2 nM GST-Chk1, 600 μM ATP)
# Assay type: biochemical
# Conditions: Biotin-GLYRSPSMPEN-amide substrate
# Description: Recombinant human Chk1 was expressed as a fusion protein with glutathione S-transferase at the amino-terminus (GST-Chk1) using standard baculovirus vectors and (Bac-to-Bac®) insect cell expression system purchased from GIBCO™ Invitrogen. Recombinant protein expressed in insect cells was purified using glutathione sepharose (Amersham Biotech) using standard procedures described by the manufacturer.
# Chk1 DELFIA® Kinase Assay:
# Assays (25 μL) utilized 2 nM GST-Chk1 containing 10 mM Tris, pH 7.5, 20% glycerol, 50 mM sodium chloride (NaCl), 0.01% Surfact-Amps® 20, 1 μM peptide stubstrate (Biotin-GLYRSPSMPEN-amide) (SEQ ID NO: 3), 01.% BSA, 2 mM DTT, 4% DMSO, 600 μM ATP, 10 MM MgCl2 and reacted for 50 minutes at room temperature. Reactions were terminated with 100 μL of Stop buffer containing 1% BSA, 10 mM Tris, pH 8.0, 150 mM NaCl, 100 mM EDTA. Stopped reactions (100 μL) were transferred to 96 well NeutrAvidin plates (Pierce) to capture the biotin-peptide substrate during a 30 minute room temperature incubation. Wells were washed and reacted with 100 μL PerkinElmer Wallac Assay Buffer containing 21.5 ng/ml anti-phospho-Ser216-Cdc25c rabbit polyclonal antibody from Cell Signaling Technology (Beverly, Mass.) and 292 ng/ml europium labeled anti-rabbit-IgG for 1 hour at room temperature. Wells were washed and europium released from the bound antibody by addition of Enhancement Solution (100 μL) (PerkinElmer Wallac) and detected using a Perkin Elmer Wallac Envison™ 2100 multilabel reader using standard manufacturer settings.
row,Compound,IC50
1,"Cc1[nH]nc2c1c(=O)n(C[C@H](C)CN)c1ccc(Cl)cc21 [Example 221, 5-(3-Amino-2R-methyl-propyl)-8-chloro-3-methyl-2,5-dihydro-pyrazolo[4,3-c]quinolin-4-one]",< 1 µM
2,"COCCc1[nH]nc2c1c(=O)n(C[C@@H](C)CN)c1ccc(Cl)cc21 [Example 222, 5-(3-Amino-2S-methyl-propyl)-8-chloro-3-(2-methoxy-ethyl)-2,5-dihydro-pyrazolo[4,3-c]quinolin-4-one]",< 1 µM
3,"COCCc1[nH]nc2c1c(=O)n(C[C@H](C)CN)c1ccc(Cl)cc21 [Example 223, 5-(3-Amino-2R-methyl-propyl)-8-chloro-3-(2-methoxy-ethyl)-2,5-dihydro-pyrazolo[4,3-c]quinolin-4-one]",< 1 µM
4,"Cc1[nH]nc2c1c(=O)n(C[C@@H]1CCCNC1)c1ccc(Cl)cc21 [Example 224, 8-Chloro-3-methyl-5R-piperidin-3-ylmethyl-2,5-dihydro-pyrazolo[4,3-c]quinolin-4-one]",< 1 µM
5,"Cc1[nH]nc2c1c(=O)n(C[C@H]1CCCNC1)c1ccc(Cl)cc21 [Example 225, 8-Chloro-3-methyl-5S-piperidin-3-ylmethyl-2,5-dihydro-pyrazolo[4,3-c]quinolin-4-one]",< 1 µM
6,"COCCc1[nH]nc2c1c(=O)n(C[C@@H]1CCCNC1)c1ccc(Cl)cc21 [Example 226, 8-Chloro-3-(2-methoxy-ethyl)-5R-piperidin-3-ylmethyl-2,5-dihydro-pyrazolo[4,3-c]quinolin-4-one]",< 1 µM
7,"COCCc1[nH]nc2c1c(=O)n(C[C@H]1CCCNC1)c1ccc(Cl)cc21 [Example 227, 8-Chloro-3-(2-methoxy-ethyl)-5S-piperidin-3-ylmethyl-2,5-dihydro-pyrazolo[4,3-c]quinolin-4-one]",< 1 µM
8,"Cc1[nH]nc2c1c(=O)n(CC1CNC1)c1ccc(Cl)cc21 [Example 228, 5-Azetidin-3-ylmethyl-8-chloro-3-methyl-2,5-dihydro-pyrazolo[4,3-c]quinolin-4-one]",< 1 µM
9,"Cc1[nH]nc2c1c(=O)n(CCC(C)(C)N)c1ccc(Cl)cc21 [Example 229, 5-(3-Amino-3-methyl-butyl)-8-chloro-3-methyl-2,5-dihydro-pyrazolo[4,3-c]quinolin-4-one]",< 1 µM
10,"Cc1[nH]nc2c1c(=O)n(CC(=O)C1CCCN1)c1ccc(Cl)cc21 (stereo not drawn) [Example 230, 8-Chloro-3-methyl-5-(2-oxo-2-pyrrolidin-2-yl-ethyl)-2,5-dihydro-pyrazolo[4,3-c]quinolin-4-one]",< 1 µM
11,"CNCCCn1c(=O)c2c(C)[nH]nc2c2cc(Cl)ccc21 [Example 231, 8-Chloro-3-methyl-5-(3-methylamino-propyl)-2,5-dihydro-pyrazolo[4,3-c]quinolin-4-one]",< 1 µM
12,"CNCCCn1c(=O)c2c(C)[nH]nc2c2cc(I)ccc21 [Example 234, 8-Iodo-3-methyl-5-(3-methylamino-propyl)-2,5-dihydro-pyrazolo[4,3-c]quinolin-4-one]",< 1 µM
13,"CNCCCn1c(=O)c2c(C)[nH]nc2c2cc(C)ccc21 [Example 235, 3,8-Dimethyl-5-(3-methylamino-propyl)-2,5-dihydro-pyrazolo[4,3-c]quinolin-4-one]",< 1 µM
14,"CNCCCn1c(=O)c2c(CCOC)[nH]nc2c2cc(C)ccc21 [Example 236, 3-(2-Methoxy-ethyl)-8-methyl-5-(3-methylamino-propyl)-2,5-dihydro-pyrazolo[4,3-c]quinolin-4-one]",< 1 µM
15,"CNCCCn1c(=O)c2c(CCOC)[nH]nc2c2cc(Cl)ccc21 [Example 237, 8-Chloro-3-(2-methoxy-ethyl)-5-(3-methylamino-propyl)-2,5-dihydro-pyrazolo[4,3-c]quinolin-4-one]",< 1 µM
16,"CCNCCCn1c(=O)c2c(C)[nH]nc2c2cc(Cl)ccc21 [Example 238, 8-Chloro-5-(3-ethylamino-propyl)-3-methyl-2,5-dihydro-pyrazolo[4,3-c]quinolin-4-one]",< 1 µM
17,"CCCNCCCn1c(=O)c2c(C)[nH]nc2c2cc(Cl)ccc21 [Example 239, 8-Chloro-3-methyl-5-(3-propylamino-propyl)-2,5-dihydro-pyrazolo[4,3-c]quinolin-4-one]",< 1 µM

row,Compound,IC50
1,"Cc1[nH]nc2c1c(=O)n(CCCNCc1cccs1)c1ccc(Cl)cc21 [Example 242, 8-Chloro-3-methyl-5-{3-[(thiophen-2-ylmethyl)-amino]-propyl}-2,5-dihydro-pyrazolo[4,3-c]quinolin-4-one]",< 1 µM
2,"Cc1[nH]nc2c1c(=O)n(CCCNCc1ccc[nH]1)c1ccc(Cl)cc21 [Example 243, 8-Chloro-3-methyl-5-{3-[(1H-pyrrol-2-ylmethyl)-amino]-propyl}2,5-dihydro-pyrazolo[4,3-c]quinolin-4-one]",< 1 µM
3,"Cc1[nH]nc2c1c(=O)n(CCCNCc1ncc[nH]1)c1ccc(Cl)cc21 [Example 244, 8-Chloro-5-{3-[(1H-imidazol-2-ylmethyl)-amino]-propyl}-3-methyl-2,5-dihydro-pyrazolo[4,3-c]quinolin-4-one]",< 1 µM
4,"Cc1[nH]nc2c1c(=O)n(CC(O)C1CCCN1)c1ccc(Cl)cc21 (stereo not drawn) [Example 246, 8-Chloro-5-(2-hydroxy-2-pyrrolidin-2-yl-ethyl)-3-methyl-2,5-dihydro-pyrazolo[4,3-c]quinolin-4-one]",< 1 µM
5,"CNCC(O)Cn1c(=O)c2c(C)[nH]nc2c2cc(Cl)ccc21 (stereo not drawn) [Example 247, 8-Chloro-5-(2-hydroxy-3-methylamino-propyl)-3-methyl-2,5-dihydro-pyrazolo[4,3-c]quinolin-4-one]",< 1 µM
6,"CCNCC(O)CCn1c(=O)c2c(C)[nH]nc2c2cc(Cl)ccc21 (stereo not drawn) [Example 248, 8-Chloro-5-(4-ethylamino-3-hydroxy-butyl)-3-methyl-2,5-dihydro-pyrazolo[4,3-c]quinolin-4-one]",< 1 µM
7,"CNCC(O)CCn1c(=O)c2c(C)[nH]nc2c2cc(Cl)ccc21 (stereo not drawn) [Example 249, 8-Chloro-5-(3-hydroxy-4-methylamino-butyl)-3-methyl-2,5-dihydro-pyrazolo[4,3-c]quinolin-4-one]",< 1 µM
8,"CCCNCC(O)CCn1c(=O)c2c(C)[nH]nc2c2cc(Cl)ccc21 (stereo not drawn) [Example 250, 8-Chloro-5-(3-hydroxy-4-propylamino-butyl)-3-methyl-2,5-dihydro-pyrazolo[4,3-c]quinolin-4-one]",< 1 µM
9,"Cc1[nH]nc2c1c(=O)n(CCCN)c1ccc(OCCCN)cc21 [Example 255, 8-(3-Amino-propoxy)-5-(3-amino-propyl)-3-methyl-2,5-dihydro-pyrazolo[4,3-c]quinolin-4-one]",< 1 µM
10,"CCOc1ccc2c(c1)c1n[nH]c(C)c1c(=O)n2CCCN [Example 256, 5-(3-Amino-propyl)-8-ethoxy-3methyl-2,5-dihydro-pyrazolo[4,3-c]quinolin-4-one]",< 1 µM
11,"Cc1[nH]nc2c1c(=O)n(CCCN)c1ccc(OCc3ccccc3)cc21 [Example 257, 5-(3-Amino-propyl)-8-benzyloxy-3-methyl-2,5-dihydro-pyrazolo[4,3-c]quinolin-4-one]",< 1 µM
12,"CCCOc1ccc2c(c1)c1n[nH]c(C)c1c(=O)n2CCCN [Example 258, 5-(3-Amino-propyl)-3-methyl-8-propoxy-2,5-dihydro-pyrazolo[4,3-c]quinolin-4-one]",< 1 µM
13,"Cc1[nH]nc2c1c(=O)n(CCCN)c1ccc(OCC(C)C)cc21 [Example 259, 5-(3-Amino-propyl)-8-isobutoxy-3-methyl-2,5-dihydro-pyrazolo[4,3-c]quinolin-4-one]",< 1 µM
14,"Cc1[nH]nc2c1c(=O)n(CCCN)c1ccc(N)cc21 [Example 260, 8-Amino-5-(3-amino-propyl)-3-methyl-2,5-dihydro-pyrazolo[4,3-c]quinolin-4-one]",< 1 µM
15,"CC(=O)Nc1ccc2c(c1)c1n[nH]c(C)c1c(=O)n2CCCN [Example 261, N-[5-(3-Amino-propyl)-3-methyl-4-oxo-4,5-dihydro-2H-pyrazolo[4,3-c]quinolin-8-yl]-acetamide]",< 1 µM
16,"Cc1[nH]nc2c1c(=O)n(CCCN)c1ccc(NC(=O)[C@@H]3CCCN3)cc21 [Example 262, Pyrrolidine-2S-carboxylic acid [5-(3-amino-propyl)-3-methyl-4-oxo-4,5-dihydro-2H-pyrazolo[4,3-c]quinolin-8-yl]-amide]",< 1 µM
